Source: patent US8093028B2, “Engineered glycosyltransferases with expanded substrate specificity” (Wisconsin Alumni Research Foundation, priority 2007, dated 2012)
Where two headings read alike, the source gives them in different places.

What was measured:
OleD A242V = target: T1, OleD A242V (Streptomyces antibioticus, UniProt Q53685, A242V/P55A/R82V/R83E/T84P); format: biochemical; conditions: Table 3, 4-Me-umb (4) as acceptor, end point assay
T1 construct: made in house; host or cells: E. coli BL21(DE3)pLysS (error-prone PCR clone in pET28a)
Method: (§1) Reactions were carried out as described above with the following exceptions. The total volume was 50 μl and the acceptor FIG. 1: 4 was at 50 μM and the NDP-sugar at ˜500 μM. The NDP-sugars were used directly from RmlA-catalyzed reactions. […] Reactions were incubated at 25° C. for 3 h.
(§2) The total volume was 50 μl and the acceptor FIG. 1: 4 or FIG. 1: 1 was at 50 μM and the NDP-sugar at ˜500 μM. The NDP-sugars were used directly from RmlA-catalyzed reactions. […] Reactions were incubated at 25° C. for 3 h.
(§3) For activity toward FIG. 1: 4, aliquots (25 μl) were quenched with 25 μl of an 8:1 mixture of ice-cold MeOH/HCl, and centrifuged at 14,000 rpm for 10 min. […] HPLC peak areas were integrated, and the product concentration calculated as a percent of the total peak area. All products were characterized by LC-MS. Mass spectra were obtained using electrospray ionization on an Agilent 1100 HPLC-MSD SL quadrapole mass spectrometer connected to a UV/Vis diode array detector.

OleD P67T = target: T2, OleD P67T (Streptomyces antibioticus, UniProt Q53685, P55A/P67T/R82V/R83E/T84P); format: biochemical; conditions: Table 3, 4-Me-umb (4) as acceptor, end point assay
T2 construct: made in house; host or cells: E. coli (site-directed mutant of pET28/OleD)
Method: as §1, §2, §3

OleD P67T/S132F/A242V [1] = target: T3, OleD P67T/S132F/A242V (Streptomyces antibioticus, UniProt Q53685, A242V/P67T/S132F); format: biochemical; conditions: for Conversion rates (%), P67T/S132F/A242V: Table 3, 4-Me-umb (4) as acceptor, end point assay; for Conversion Rate (%), P67T/S132F/A242V: Table 2, acceptor 4 at 50 μM, NDP-sugar ~500 μM, 25° C., 3 h
T3 construct: made in house; host or cells: E. coli (site-directed mutant of pET28/OleD)
Method: as §1, §2, §3

OleD S132F = target: T4, OleD S132F (Streptomyces antibioticus, UniProt Q53685, P55A/R82V/R83E/S132F/T84P); format: biochemical; conditions: Table 3, 4-Me-umb (4) as acceptor, end point assay
T4 construct: made in house; host or cells: E. coli (site-directed mutant of pET28/OleD)
Method: as §1, §2, §3

WT OleD = target: T5, WT OleD (Streptomyces antibioticus, UniProt Q53685, P55A/R82V/R83E/T84P); format: biochemical; conditions: for Conversion rates (%), WT: Table 3, 4-Me-umb (4) as acceptor, end point assay; for Conversion Rate (%), WT: Table 2, acceptor 4 at 50 μM, NDP-sugar ~500 μM, 25° C., 3 h
T5 construct: made in house; host or cells: E. coli BL21(DE3)pLysS, plasmid pET28/OleD
Method: as §1, §2, §3

OleD P67T/S132F/A242V [2] = target: T3, OleD P67T/S132F/A242V; format: biochemical; conditions: novobiocic acid (FIG. 9: 1) as acceptor
Method: Biotechnol. […] Reactions were incubated at 25° C. for 3 h. […] Supernatants were analyzed by analytical reverse-phase HPLC as described above. HPLC peak areas were integrated, and the product concentration calculated as a percent of the total peak area. All products were characterized by LC-MS.

[3] = tested on: ASP OleD (A242V/S132F/P67T); assay: Kinetic parameters with model acceptors phenol, thiophenol, aniline; format: biochemical, Streptomyces antibioticus; conditions: UDP-Glc donor
From the text: To confirm O—, S- and N-glucoside formation, iterative glycosylation, and determine anomeric stereoselectivity, a select set of OleD-catalyzed reactions with simple aromatic model acceptors phenol (FIG. 17: 8), thiophenol (FIG. 17: 6), and aniline (FIG. 17: 34) were studied in depth.

[4] = tested on: CC(C)=CCc1cc(C(=O)Nc2c(O)c3ccc(O)c(C)c3oc2=O)ccc1O; assay: purified protein, by the assay type; conditions: other: named substrate varied, other substrate fixed at 5 mM; pH 8.0

Compound | Conversion rates (%), A242V (OleD A242V) [%] | Conversion rates (%), P67T (OleD P67T) [%] | Conversion rates (%), P67T/S132F/A242V (OleD P67T/S132F/A242V [1]) [%] | Conversion rates (%), S132F (OleD S132F) [%] | Conversion rates (%), WT (WT OleD) [%] | catalytic efficiency (kcat/Km) improvement of ASP versus WT OleD [3] [fold] | other results
[N-]=[N+]=NCC1OC(OP(=O)(O)OP(=O)(O)OC[C@H]2O[C@@H](n3ccc(=O)[nH]c3=O)[C@H](O)[C@@H]2O)C(O)C(O)C1O (stereo partly shown) [UDP-6-azido-glc (11), UDP-6-azido-glucose] | 2 | 2 | 41 | 1 | 0 |  | donor acceptance, P67T/S132F/A242V (OleD P67T/S132F/A242V [2]): albeit poorly
Nc1ccccc1 [aniline (FIG. 17: 34), aniline] |  |  |  |  |  | 5 | 
Oc1ccccc1 [phenol (FIG. 17; 8), phenol] |  |  |  |  |  | 25 | 
Sc1ccccc1 [thiophenol (FIG. 17: 6), thiophenol] |  |  |  |  |  | 4 | 
OleD P67T/I112K/A242V (Streptomyces antibioticus; A242V/I112K/P67T) |  |  |  |  |  |  | Km [4]: 800 µM; kcat [4]: 0.0855 s⁻¹
UDP-4-deoxy-glc [UDP-4-deoxy-glc (12)] | 0 | 0 | 22 | 0 | 0 |  | 
UDP-6-deoxy-glucose [UDP-6-deoxy-glc (8)] | 6 | 11 | 85 | 10 | 6 |  | Conversion rates (%), A242V (OleD A242V; listed as FIG. 3: 8): ≤ 12%; Conversion rates (%), P67T (OleD P67T; listed as FIG. 3: 8): ≤ 12%; Conversion Rate (%), P67T/S132F/A242V (OleD P67T/S132F/A242V [1]): 85%; Conversion rates (%), S132F (OleD S132F; listed as FIG. 3: 8): ≤ 12%; Conversion Rate (%), WT (WT OleD): 6%
UDP-6-thio-glucose [FIG. 3: 9] |  |  |  |  |  |  | Conversion Rate (%), P67T/S132F/A242V (OleD P67T/S132F/A242V [1]): 47%; Conversion Rate (%), WT (WT OleD; listed as 9): 1%
